# “Also recorded” adds a separate entry of the source. Read-outs that look alike come from different tables or passages of the source.
# Assays:
# [1] = system: repair of damage caused by ionizing radiation; conditions: background; cited from earlier work
# [2] = molecular target: T1, Poly (ADP-ribose) synthetase (Bos taurus, UniProt P18493); experiment: Inhibition of Poly (ADP-ribose) synthetase (ADPRP inhibition); assay type: biochemical; conditions: [3H]NAD, calf thymus DNA and histone, pH 8.0, 30° C., 15 minutes
# T1 construct: Poly(ADP-ribose) synthetase from calf thymus; from tissue; host or cells: calf thymus
# T1 sequence (P18493 whole entry): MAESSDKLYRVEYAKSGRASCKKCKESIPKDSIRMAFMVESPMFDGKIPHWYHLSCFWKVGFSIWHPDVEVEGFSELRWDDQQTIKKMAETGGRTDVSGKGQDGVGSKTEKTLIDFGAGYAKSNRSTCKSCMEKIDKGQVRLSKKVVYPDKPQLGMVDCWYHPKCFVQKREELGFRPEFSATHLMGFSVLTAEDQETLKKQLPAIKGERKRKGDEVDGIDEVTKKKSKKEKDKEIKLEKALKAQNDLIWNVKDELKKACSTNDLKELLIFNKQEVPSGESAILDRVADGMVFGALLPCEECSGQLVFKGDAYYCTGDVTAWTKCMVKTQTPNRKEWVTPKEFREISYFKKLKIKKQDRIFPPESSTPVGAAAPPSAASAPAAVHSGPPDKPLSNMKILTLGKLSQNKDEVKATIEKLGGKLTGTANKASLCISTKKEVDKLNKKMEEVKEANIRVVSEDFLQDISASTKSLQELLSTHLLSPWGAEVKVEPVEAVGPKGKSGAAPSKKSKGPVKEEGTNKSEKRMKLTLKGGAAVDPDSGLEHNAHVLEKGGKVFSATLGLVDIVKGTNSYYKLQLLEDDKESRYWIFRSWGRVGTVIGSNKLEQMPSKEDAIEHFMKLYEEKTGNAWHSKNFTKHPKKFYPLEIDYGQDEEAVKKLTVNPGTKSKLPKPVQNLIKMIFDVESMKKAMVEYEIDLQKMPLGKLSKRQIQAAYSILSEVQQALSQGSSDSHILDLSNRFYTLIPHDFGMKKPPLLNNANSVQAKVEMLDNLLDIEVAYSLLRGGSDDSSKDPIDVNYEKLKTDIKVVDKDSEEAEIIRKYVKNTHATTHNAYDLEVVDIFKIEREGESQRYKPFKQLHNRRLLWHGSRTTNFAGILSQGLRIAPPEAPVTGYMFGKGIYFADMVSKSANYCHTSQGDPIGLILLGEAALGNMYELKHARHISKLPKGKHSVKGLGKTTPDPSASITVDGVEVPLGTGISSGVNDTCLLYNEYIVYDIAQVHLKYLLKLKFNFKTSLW
# Description: Poly (ADP-ribose) synthetase is partially purified by the procedure of Shizuta, et al, up to and including the DNA-agarose column step. Active fractions are pooled and stored in small aliquots at -90° C. The specific activity was generally in the range of 25 U/rag protein, where one unit of enzyme activity is defined as the amount polymerizing 1 nmol of ADP-ribose moiety from [^3 H]NAD per minute at 30° C.
# The enzyme assay is performed by placing the following in small glass tubes kept at 4° C.: 100 μL of buffer consisting of 0.5 M Tris-HCl pH 8.0, 50 mM MgCl2, and 5 mM dithiothreitol; 50 μL of 1 mM [adenine-2,8-^3 H]nicotinamide adenine dinucleotide at a concentration of 15 μCi/mL; 100 μL of calf thymus DNA (0.3 mg/mL in water); 50 μL of calf thymus histone (Sigma, Type IIA, 0.5 mg/mL); 50 μL of inhibitor or inhibitor solvent; 150 μL of enzyme (25 μg). The components are thoroughly mixed and warmed to 30° C. in a water bath. After 15 minutes the reaction is stopped by adding 2 mL of ice cold 15% trichloroacetic acid and the tubes are placed on ice for 15 minutes. The precipitate is collected on glass fiber filters and washed five times with ice-cold 15% trichloroacetic acid. The filters are dried and radioactivity determined in a liquid scintillation counter.
# [3] = system: Rif-1 sarcoma; experiment: In Vivo Assay for Radiosensitizing Activity (Rif-1 sarcoma); parameters: species or system mice; conditions: IP 30 minutes before first x-ray dose, Days 6-10 and 13-17, x-Ray only T-C 18 days
# Description: Mice were implanted with 1.9×10^5 Rif-1 sarcoma cells on Day 0. Treatment was on Days 6-10 and 13-17. On each treatment day the tumor-bearing limb received two doses of 2.5 Gy X-irradiation separated by 3 hours. Test compound was administered IP 30 minutes prior to the first x-ray dose on each treatment day. Effectiveness is measured by the T-C, the difference in days for the treated and control tumors, respectively, to reach 1000 mg.
# [4] = system: hypoxic tumor cells; conditions: in vitro and in vivo, background, cited from earlier work
# [5] = system: central nervous system; conditions: cited from earlier work
IC50 [2],SMILES,other results
1000 to 10000 nM,"O=c1[nH]ccc2ncccc12 [Compound 3, 1,6-Naphthyridine-5(6H)-one]",–
1200 nM,"Cc1cc2ncccc2c(=O)[nH]1 [Compound 4, 7-Methyl-1,6-naphthyridine-5 (6H) -one]",–
1000 to 10000 nM,"O=c1[nH]cc(Br)c2ncccc12 [Compound 5, 8Bromo-1,6-naphthyridine-5(6H) -one]",–
510 nM,"CN1CCCc2c1cc[nH]c2=O [Compound 8, 1,2,3,4-Tetrahydro-1-methyl-1,6-naphthyridin-5 (6H) one]",T-C (days for treated minus control tumors to reach 1000 mg) ([3]; 340 mg/kg/inj + x-Ray (2.5 Gy × 2)): 38 days
10000 to 100000 nM,"O=c1[nH]ccc2c1ccc[n+]2[O-] [Compound 9, 1,6-Naphthyridine-5(6H)-one, 1-oxide]",–
2500 nM,"O=C1NCCc2ncccc21 [Compound 13, 7,8-Dihydro-1,6-naphthyridin-5(6H)-one]",T-C (days for treated minus control tumors to reach 1000 mg) ([3]; 500 mg/kg/inj + x-Ray (2.5 Gy × 2)): 26 days
110 nM,Cc1cccc2c1CCNC2=O [Reference Compound],–

# Second part, the molecule before the results:
SMILES,IC50 [2],other results
NC(=O)c1cccc(N)c1 [3-aminobenzamide],–,"sensitization to lethal effects of radiation / inhibition of repair [1]: inhibit this postirradiation repair process; also recorded: repair of damage caused by exposure to DNA-damaging agents such as ionizing radiation, was inhibited"
"O=c1[nH]ccc2c1CCCN2 [Compound 6, 1,2,3,4-Tetrahydro-1,6-naphthyridine-5(6H)-one]",1000 to 10000 nM,–
"C[n+]1cccc2c(=O)[nH]ccc21 [Compound 7, 5,6-Dihydro-1-methyl-5-oxo-1,6-naphthyridin-1-ium monoiodide]",10000 to 100000 nM,–
CNC=O [N-methylformamide],–,sensitization to lethal effects of radiation / inhibition of repair [1]: sensitize tumors to the lethal effects of radiation
"Cc1ncc([N+](=O)[O-])n1CCO [metronidazole, 2-methyl-5-nitro-1H-imidazole-1-ethanol]",–,"radiosensitizing activity [4]: effective as radiosensitizers for hypoxic cells in vivo; radiosensitizing activity ([4]; listed as Metronidazole): active both in vitro and in vivo as a radiosensitizer; CNS side effects ([5]; mouse, in vivo): peripheral neuropathy effects and convulsions in mice"
"COCC(O)Cn1ccnc1[N+](=O)[O-] (stereo not drawn) [misonidazole, α-(methoxymethyl)-2-nitro-1H-imidazole-1-ethanol]",–,radiosensitizing activity [4]: of value as a radiosensitizer for hypoxic tumor cells; also recorded: effective as radiosensitizers for hypoxic cells in vivo; CNS side effects ([5]; administered to mice): peripheral neuropathy effects and convulsions in mice
